# Results as given in PMC9096233, “Identification of an Au(I) N-Heterocyclic Carbene Compound as a Bactericidal Agent Against Pseudomonas aeruginosa” (Frontiers in Chemistry, 2022).
# Columns and labels:
# [1] = system: lung carcinoma A549 cell; assay: MTT cytotoxicity assay; assay type: cell-based, Human; details: 48 h
# Procedure: The cytotoxicity of gold compounds to mammalian cells was measured using the 3-(4, 5-dimethylthiazol-2-yl)-2, 5-diphenyltetrazolium bromide (MTT) assay. Human hepatocyte L-O2 cell, and lung carcinoma A549 cell were cultured in Corning 96 well microplates (10^4 cells per well) at 37°C for 18 h. Then the cells were incubated with gradient concentrations of gold compounds at 37°C for another 48 h. After the treatment, cell culture media were removed and the plates were wash with PBS for three times. And 90 μL fresh media and 10 μL 5 mg/ml MTT solution were added to each well and further incubated at 37°C for 4 h. Subsequently, the media were removed from the wells and 150 μL DMSO was added into each well to dissolve the formazan crystals. The absorbance at 490 nm of each well was measured with a micro-plate reader. The experiments were carried out in triplicates.
# [2] = system: P. aeruginosa; assay: Bacterial growth curves; assay type: cell-based, Pseudomonas aeruginosa; details: growth curves
# Procedure: Pseudomonas aeruginosa strain PAO1 (P. aeruginosa) was grown in M9 minimal medium (1.0 g/L NH4Cl, 0.5 g/L NaCl, 6.0 g/L Na2HPO4, 3.0 g/L KH2PO4) supplemented with 1.0 mM MgSO4, 1.0 mM ZnSO4, 0.2 mM CaCl2, 0.4% (w/v) glucose and 0.2% (w/v) casein hydrolysate. Gram-negative Escherichia coli strain K-12 (E. coli) and Burkholderia cepacia J2315 (B. cepacia) were cultured in Luria-Bertani (LB) medium (5 g/L yeast extract, 10 g/L tryptone, 10 g/L sodium chloride). The Gram-positive Staphylococcus aureus strain Newman (S. aureus) was grown in Tryptic Soy Broth (TSB) medium (17 g/L Tryptone, 3 g/L Phytone, 5 g/L sodium chloride, 2.5 g/L dipotassium phosphate and glucose 2.5 g/L).
# [3] = system: P. aeruginosa; assay: Checkerboard assay with antibiotics; assay type: cell-based, Pseudomonas aeruginosa; details: with tobramycin and colistin
# Excerpt: Figure S4. Heat plots of checkerboard assays for gold(I) compounds in combination with different antibiotics against P. aeruginosa.
# [4] = system: pyocyanin; assay: Quantification of secreted pyocyanin; assay type: cell-based, Pseudomonas aeruginosa; details: 15 μM; 24 h
# Procedure: (§1) To quantify the secreted virulence factors, overnight P. aeruginosa PAO1 was diluted in fresh M9 medium and cultured to a final OD600 value of 0.15. Then Au1 or auranofin were added into culture with indicated concentrations. After 24 h incubation at 37°C, the bacterial supernatants were collected by centrifugation at 4,000 g for 10 min at 4°C and filtered using a 0.22 μm syringe filter (Millipore). The secreted virulence factors in the supernatant were quantified by the methods described below.
# The bacterial secreted pyocyanin was quantified as described previously ([Essar et al., 1990]). Approximately 10 ml bacterial supernatant medium was collected by centrifugation. Subsequently, 3 ml chloroform was added into medium to extract the pyocyanin. The pyocyanin was re-extracted into 1 ml of 0.2 M HCl to give a pink to deep red solution after approximately 30 min. The pyocyanin concentration was determined by measurement the absorbance at 520 nm.
# [5] = system: LasA protease; assay: LasA protease detection (azocasein); assay type: cell-based, Pseudomonas aeruginosa; details: 15 μM; 24 h
# Procedure: as §1
# For LasA protease detection, 5 μL of filtered supernatant was mixed with 1 ml of 0.5% azocasein (Sigma-Aldrich) in reaction buffer (50 mM Tris-HCl, 0.5 mM CaCl2, pH 7.5). The mixture was incubated at 37°C for 15 min. After reaction, 500 μL of 10% trichloroacetic (TCI Shanghai) acid was added and incubated for 30 min at room temperature. After centrifugation at 10,000 g for 20 min, the 440 nm absorbance of the collected supernatant was measured to quantify the secreted LasA protease.
# [6] = system: LasB elastase; assay: LasB elastase, Elastin-Congo red assay; assay type: cell-based, Pseudomonas aeruginosa; details: 15 μM; 24 h
# Procedure: as §1
# The LasB elastase was examined by Elastin-Congo red assay ([Morihara et al., 1965]). In brief, 700 μL of bacterial supernatant was incubated with 700 μL of 10 mg/ml Elastin-Congo (Sigma-Aldrich) red elastase substrate in reaction buffer (100 mM Tris-HCl, 1 mM CaCl2, pH 7.5) at 37°C for 3 h with shaking. Then 0.2 ml EDTA was added to a final concentration of 10 mM to stop the cleavage reaction. Insoluble pellets were removed by centrifugation and the absorbance of the supernatant at 495 nm was measured.
# [7] = system: rhamnolipid; assay: Rhamnolipid measurement (anthrone); assay type: cell-based, Pseudomonas aeruginosa; details: 15 μM
# Procedure: as §1
# For rhamnolipid measurement, rhamnolipid was extracted from the supernatant with a mixture of chloroform and methanol (v:v = 2:1). The organic solvent phase was then evaporated to dryness and 100 μL methanol was added to dissolve the extracted rhamnolipid. Then 200 μL of pre-cooled anthrone solution (dissolving 2 g of anthrone in 1 L of concentrated H2SO4) was added into 20 μL extracted rhamnolipid sample and heat at 80°C for 30min. The rhamnolipid concentration was determined by measurement the absorbance at 630 nm.
substance,measurement,setting,value
NHC^Me-Au-Cl [Au1],IC50,[1],32.8 ± 1.6 µM
same,concentration at which P. aeruginosa growth was completely inhibited,[2],20 µM
same,synergistic effects with antibiotics,[3],synergistic effects
same,pyocyanin secretion,[4],almost completely inhibited
same,decrease of LasA protease secretion,[5],54%
same,decrease of elastase secretion,[6],38%
same,synthesis of rhamnolipid,[7],significantly suppress
